In patent US9113629B2, “4-amino-6-(4-substituted-phenyl)-picolinates and 6-amino-2-(4-substituted-phenyl)-pyrimidine-4-carboxylates and their use as herbicides” (DOW AGROSCIENCES LLC, priority 2013, dated 2015):

tested on: Key Grass and Sedge Weeds as well as Grass Crops; assay: Post-emergent Test II herbicidal activity (Table 6); type: in vivo; details: Triticum aestivum, post-emergence, 336 h, TRZSS (wheat), application rate 70 g ai/ha, read-out: Visual Growth Reduction (%) 14 Days After Application, TRZSS
Procedure, shortened: (§1)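 Greenhouse post-emergent assay: seedlings (first/second true leaf) in Metro-Mix 360 were sprayed at 187 L/ha at a top rate plus twofold dilutions down to 1/16×; solvent-blank controls were included. Percent visual injury was read at 14 d.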

Structure (SMILES)	pest or weed control at 70 g/ha [%]
COC(=O)c1nc(-c2ccc(C#N)cc2)c(C)c(N)c1Cl [Compound 83, Methyl 4-amino-3-chloro-6-(4-cyanophenyl)-5-methylpicolinate]	0 to 29

same assay, conditions: Triticum aestivum, post-emergence, 336 h, TRZSS (wheat), application rate 140 g ai/ha, read-out: Visual Growth Reduction (%) 14 Days After Application, TRZSS

Structure (SMILES)	pest or weed control at 140 g/ha [%]
COC(=O)c1nc(-c2ccc(C#N)cc2)c(C)c(N)c1Cl [Compound 83, Methyl 4-amino-3-chloro-6-(4-cyanophenyl)-5-methylpicolinate]	0 to 29

same assay, conditions: post-emergence, 336 h, CYPES: yellow nutsedge (Cyperus esculentus), application rate 70 g ai/ha, read-out: Visual Growth Reduction (%) 14 Days After Application, CYPES

Structure (SMILES)	pest or weed control at 70 g/ha [%]
COC(=O)c1nc(-c2ccc(C#N)cc2)c(C)c(N)c1Cl [Compound 83, Methyl 4-amino-3-chloro-6-(4-cyanophenyl)-5-methylpicolinate]	0 to 29

same assay, conditions: post-emergence, 336 h, CYPES: yellow nutsedge (Cyperus esculentus), application rate 140 g ai/ha, read-out: Visual Growth Reduction (%) 14 Days After Application, CYPES

Structure (SMILES)	pest or weed control at 140 g/ha [%]
COC(=O)c1nc(-c2ccc(C#N)cc2)c(C)c(N)c1Cl [Compound 83, Methyl 4-amino-3-chloro-6-(4-cyanophenyl)-5-methylpicolinate]	0 to 29

same assay, conditions: post-emergence, 336 h, DIGSA: crabgrass (Digitaria sanguinalis), application rate 70 g ai/ha, read-out: Visual Growth Reduction (%) 14 Days After Application, DIGSA

Structure (SMILES)	pest or weed control at 70 g/ha [%]
COC(=O)c1nc(-c2ccc(C#N)cc2)c(C)c(N)c1Cl [Compound 83, Methyl 4-amino-3-chloro-6-(4-cyanophenyl)-5-methylpicolinate]	0 to 29

same assay, conditions: post-emergence, 336 h, DIGSA: crabgrass (Digitaria sanguinalis), application rate 140 g ai/ha, read-out: Visual Growth Reduction (%) 14 Days After Application, DIGSA

Structure (SMILES)	pest or weed control at 140 g/ha [%]
COC(=O)c1nc(-c2ccc(C#N)cc2)c(C)c(N)c1Cl [Compound 83, Methyl 4-amino-3-chloro-6-(4-cyanophenyl)-5-methylpicolinate]	0 to 29

same assay, conditions: post-emergence, 336 h, ECHCG: barnyardgrass (Echinochloa crus-galli), application rate 70 g ai/ha, read-out: Visual Growth Reduction (%) 14 Days After Application, ECHCG

Structure (SMILES)	pest or weed control at 70 g/ha [%]
COC(=O)c1nc(-c2ccc(C#N)cc2)c(C)c(N)c1Cl [Compound 83, Methyl 4-amino-3-chloro-6-(4-cyanophenyl)-5-methylpicolinate]	0 to 29

same assay, conditions: post-emergence, 336 h, ECHCG: barnyardgrass (Echinochloa crus-galli), application rate 140 g ai/ha, read-out: Visual Growth Reduction (%) 14 Days After Application, ECHCG

Structure (SMILES)	pest or weed control at 140 g/ha [%]
COC(=O)c1nc(-c2ccc(C#N)cc2)c(C)c(N)c1Cl [Compound 83, Methyl 4-amino-3-chloro-6-(4-cyanophenyl)-5-methylpicolinate]	0 to 29

same assay, conditions: post-emergence, 336 h, ORYSA: rice (Oryza sativa), application rate 70 g ai/ha, read-out: Visual Growth Reduction (%) 14 Days After Application, ORYSA

Structure (SMILES)	pest or weed control at 70 g/ha [%]
COC(=O)c1nc(-c2ccc(C#N)cc2)c(C)c(N)c1Cl [Compound 83, Methyl 4-amino-3-chloro-6-(4-cyanophenyl)-5-methylpicolinate]	0 to 29

same assay, conditions: post-emergence, 336 h, ORYSA: rice (Oryza sativa), application rate 140 g ai/ha, read-out: Visual Growth Reduction (%) 14 Days After Application, ORYSA

Structure (SMILES)	pest or weed control at 140 g/ha [%]
COC(=O)c1nc(-c2ccc(C#N)cc2)c(C)c(N)c1Cl [Compound 83, Methyl 4-amino-3-chloro-6-(4-cyanophenyl)-5-methylpicolinate]	0 to 29

same assay, conditions: post-emergence, 336 h, SETFA: giant foxtail (Setaria faberi), application rate 70 g ai/ha, read-out: Visual Growth Reduction (%) 14 Days After Application, SETFA

Structure (SMILES)	pest or weed control at 70 g/ha [%]
COC(=O)c1nc(-c2ccc(C#N)cc2)c(C)c(N)c1Cl [Compound 83, Methyl 4-amino-3-chloro-6-(4-cyanophenyl)-5-methylpicolinate]	0 to 29

same assay, conditions: post-emergence, 336 h, SETFA: giant foxtail (Setaria faberi), application rate 140 g ai/ha, read-out: Visual Growth Reduction (%) 14 Days After Application, SETFA

Structure (SMILES)	pest or weed control at 140 g/ha [%]
COC(=O)c1nc(-c2ccc(C#N)cc2)c(C)c(N)c1Cl [Compound 83, Methyl 4-amino-3-chloro-6-(4-cyanophenyl)-5-methylpicolinate]	0 to 29

same assay, conditions: post-emergence, 336 h, SORVU: grain sorghum (Sorghum vulgare), application rate 70 g ai/ha, read-out: Visual Growth Reduction (%) 14 Days After Application, SORVU

Structure (SMILES)	pest or weed control at 70 g/ha [%]
COC(=O)c1nc(-c2ccc(C#N)cc2)c(C)c(N)c1Cl [Compound 83, Methyl 4-amino-3-chloro-6-(4-cyanophenyl)-5-methylpicolinate]	0 to 29

same assay, conditions: post-emergence, 336 h, SORVU: grain sorghum (Sorghum vulgare), application rate 140 g ai/ha, read-out: Visual Growth Reduction (%) 14 Days After Application, SORVU

Structure (SMILES)	pest or weed control at 140 g/ha [%]
COC(=O)c1nc(-c2ccc(C#N)cc2)c(C)c(N)c1Cl [Compound 83, Methyl 4-amino-3-chloro-6-(4-cyanophenyl)-5-methylpicolinate]	0 to 29

same assay, conditions: post-emergence, 336 h, ZEAMX: maize, corn (Zea mays), application rate 70 g ai/ha, read-out: Visual Growth Reduction (%) 14 Days After Application, ZEAMX

Structure (SMILES)	pest or weed control at 70 g/ha [%]
COC(=O)c1nc(-c2ccc(C#N)cc2)c(C)c(N)c1Cl [Compound 83, Methyl 4-amino-3-chloro-6-(4-cyanophenyl)-5-methylpicolinate]	0 to 29

same assay, conditions: post-emergence, 336 h, ZEAMX: maize, corn (Zea mays), application rate 140 g ai/ha, read-out: Visual Growth Reduction (%) 14 Days After Application, ZEAMX

Structure (SMILES)	pest or weed control at 140 g/ha [%]
COC(=O)c1nc(-c2ccc(C#N)cc2)c(C)c(N)c1Cl [Compound 83, Methyl 4-amino-3-chloro-6-(4-cyanophenyl)-5-methylpicolinate]	0 to 29

tested on: not given; assay: not given; details: not given

melting point [°C]	Structure (SMILES)
145 to 148	COC(=O)c1nc(-c2ccc(C#N)cc2)c(C)c(N)c1Cl [Compound 83, Methyl 4-amino-3-chloro-6-(4-cyanophenyl)-5-methylpicolinate]

tested on: Key Broadleaf Weed and Crop Species; assay: Post-emergent Test II herbicidal activity (Table 5); type: in vivo; details: post-emergence, 336 h; ABUTH: velvetleaf (Abutilon theophrasti); 70 g ai/ha; post-emergent; 14 days after application; read-out: Visual Growth Reduction (%) 14 Days After Application ABUTH
Procedure, shortened: as §1

Structure (SMILES)	pest or weed control at 70 g/ha [%]
COC(=O)c1nc(-c2ccc(C#N)cc2)c(C)c(N)c1Cl [Compound 83, Methyl 4-amino-3-chloro-6-(4-cyanophenyl)-5-methylpicolinate]	0 to 29

same assay, conditions: post-emergence, 336 h; ABUTH: velvetleaf (Abutilon theophrasti); 140 g ai/ha; post-emergent; 14 days after application; read-out: Visual Growth Reduction (%) 14 Days After Application ABUTH

Structure (SMILES)	pest or weed control at 140 g/ha [%]
COC(=O)c1nc(-c2ccc(C#N)cc2)c(C)c(N)c1Cl [Compound 83, Methyl 4-amino-3-chloro-6-(4-cyanophenyl)-5-methylpicolinate]	30 to 44

same assay, conditions: post-emergence, 336 h; AMARE: redroot pigweed (Amaranthus retroflexus); 70 g ai/ha; post-emergent; 14 days after application; read-out: Visual Growth Reduction (%) 14 Days After Application AMARE

Structure (SMILES)	pest or weed control at 70 g/ha [%]
COC(=O)c1nc(-c2ccc(C#N)cc2)c(C)c(N)c1Cl [Compound 83, Methyl 4-amino-3-chloro-6-(4-cyanophenyl)-5-methylpicolinate]	0 to 29

same assay, conditions: post-emergence, 336 h; AMARE: redroot pigweed (Amaranthus retroflexus); 140 g ai/ha; post-emergent; 14 days after application; read-out: Visual Growth Reduction (%) 14 Days After Application AMARE

Structure (SMILES)	pest or weed control at 140 g/ha [%]
COC(=O)c1nc(-c2ccc(C#N)cc2)c(C)c(N)c1Cl [Compound 83, Methyl 4-amino-3-chloro-6-(4-cyanophenyl)-5-methylpicolinate]	0 to 29

same assay, conditions: post-emergence, 336 h; BRSNN: oilseed-rape, canola (Brassica napus); 70 g ai/ha; post-emergent; 14 days after application; read-out: Visual Growth Reduction (%) 14 Days After Application BRSNN

Structure (SMILES)	pest or weed control at 70 g/ha [%]
COC(=O)c1nc(-c2ccc(C#N)cc2)c(C)c(N)c1Cl [Compound 83, Methyl 4-amino-3-chloro-6-(4-cyanophenyl)-5-methylpicolinate]	0 to 29

same assay, conditions: post-emergence, 336 h; BRSNN: oilseed-rape, canola (Brassica napus); 140 g ai/ha; post-emergent; 14 days after application; read-out: Visual Growth Reduction (%) 14 Days After Application BRSNN

Structure (SMILES)	pest or weed control at 140 g/ha [%]
COC(=O)c1nc(-c2ccc(C#N)cc2)c(C)c(N)c1Cl [Compound 83, Methyl 4-amino-3-chloro-6-(4-cyanophenyl)-5-methylpicolinate]	0 to 29

same assay, conditions: post-emergence, 336 h; CHEAL: lambsquarters (Chenopodium album); 70 g ai/ha; post-emergent; 14 days after application; read-out: Visual Growth Reduction (%) 14 Days After Application CHEAL

Structure (SMILES)	pest or weed control at 70 g/ha [%]
COC(=O)c1nc(-c2ccc(C#N)cc2)c(C)c(N)c1Cl [Compound 83, Methyl 4-amino-3-chloro-6-(4-cyanophenyl)-5-methylpicolinate]	0 to 29

same assay, conditions: post-emergence, 336 h; CHEAL: lambsquarters (Chenopodium album); 140 g ai/ha; post-emergent; 14 days after application; read-out: Visual Growth Reduction (%) 14 Days After Application CHEAL

Structure (SMILES)	pest or weed control at 140 g/ha [%]
COC(=O)c1nc(-c2ccc(C#N)cc2)c(C)c(N)c1Cl [Compound 83, Methyl 4-amino-3-chloro-6-(4-cyanophenyl)-5-methylpicolinate]	0 to 29

same assay, conditions: post-emergence, 336 h; EPHHL: wild poinsettia (Euphorbia heterophylla); 70 g ai/ha; post-emergent; 14 days after application; read-out: Visual Growth Reduction (%) 14 Days After Application EPHHL

Structure (SMILES)	pest or weed control at 70 g/ha [%]
COC(=O)c1nc(-c2ccc(C#N)cc2)c(C)c(N)c1Cl [Compound 83, Methyl 4-amino-3-chloro-6-(4-cyanophenyl)-5-methylpicolinate]	0 to 29

same assay, conditions: post-emergence, 336 h; EPHHL: wild poinsettia (Euphorbia heterophylla); 140 g ai/ha; post-emergent; 14 days after application; read-out: Visual Growth Reduction (%) 14 Days After Application EPHHL

Structure (SMILES)	pest or weed control at 140 g/ha [%]
COC(=O)c1nc(-c2ccc(C#N)cc2)c(C)c(N)c1Cl [Compound 83, Methyl 4-amino-3-chloro-6-(4-cyanophenyl)-5-methylpicolinate]	0 to 29

same assay, conditions: post-emergence, 336 h; HELAN: sunflower (Helianthus annuus); 70 g ai/ha; post-emergent; 14 days after application; read-out: Visual Growth Reduction (%) 14 Days After Application HELAN

Structure (SMILES)	pest or weed control at 70 g/ha [%]
COC(=O)c1nc(-c2ccc(C#N)cc2)c(C)c(N)c1Cl [Compound 83, Methyl 4-amino-3-chloro-6-(4-cyanophenyl)-5-methylpicolinate]	85 to 94

same assay, conditions: post-emergence, 336 h; HELAN: sunflower (Helianthus annuus); 140 g ai/ha; post-emergent; 14 days after application; read-out: Visual Growth Reduction (%) 14 Days After Application HELAN

Structure (SMILES)	pest or weed control at 140 g/ha [%]
COC(=O)c1nc(-c2ccc(C#N)cc2)c(C)c(N)c1Cl [Compound 83, Methyl 4-amino-3-chloro-6-(4-cyanophenyl)-5-methylpicolinate]	85 to 94

same assay, conditions: post-emergence, 336 h; VIOTR: wild pansy (Viola tricolor); 70 g ai/ha; post-emergent; 14 days after application; read-out: Visual Growth Reduction (%) 14 Days After Application VIOTR

Structure (SMILES)	pest or weed control at 70 g/ha [%]
COC(=O)c1nc(-c2ccc(C#N)cc2)c(C)c(N)c1Cl [Compound 83, Methyl 4-amino-3-chloro-6-(4-cyanophenyl)-5-methylpicolinate]	0 to 29

same assay, conditions: post-emergence, 336 h; VIOTR: wild pansy (Viola tricolor); 140 g ai/ha; post-emergent; 14 days after application; read-out: Visual Growth Reduction (%) 14 Days After Application VIOTR

Structure (SMILES)	pest or weed control at 140 g/ha [%]
COC(=O)c1nc(-c2ccc(C#N)cc2)c(C)c(N)c1Cl [Compound 83, Methyl 4-amino-3-chloro-6-(4-cyanophenyl)-5-methylpicolinate]	0 to 29
